Experimental data from a melting point compilation (Tetko et al.).

Point of comparison: `CCCCCCCOC(=O)c1ccc(O)cc1`, melting point 48 °C. Against it:
- O=C(O)Cc1cc(O)c(CC(=O)O)cc1O — higher, 234 to 236 °C
- Cc1ccc(N=Nc2cc(C(C)C)c(N=Nc3ccc(C)cc3)cc2C)cc1 — higher, 140 °C
- O=Nc1ccc2c(O)ccc(N=O)c2c1O — higher, 250 °C
- N#Cc1ccnc2ccccc12 — higher, 104 °C
- CCC(O)CN (stereo not given) — lower, 3 °C
- N[C@@H]1CCc2ccccc21 — lower, 15 °C
- CC=C(C(=CC)c1ccc(O)cc1)c1ccc(O)cc1 — higher, 228 °C
- O=C(Nc1cccc([N+](=O)[O-])c1)C(C(F)(F)F)C(F)(F)F — higher, 200 °C
- Nc1cccc(N)c1N — higher, 103 °C
- CC1(C)OC(=O)C(=Cc2ccc(-c3cccc([N+](=O)[O-])c3)o2)C(=O)O1 — higher, 179 °C
- Cn1[nH]c(N)c2c(=O)c(C(=O)O)cnc1-2 — higher, 224 °C
- CCCCOCCOCCOCCO — lower, -30 °C
- Clc1ccc2c(c1)C(c1ccccc1)=NCc1nncn1-2 — higher, 228 °C
- CC(C)c1cccc(O)c1O — lower, 47 °C
- Cc1ccc(-c2cc(C(=O)O)c(C)o2)cc1 — higher, 230 to 232 °C
- O=Cc1c[nH]c2ccc(OCc3ccccc3)cc12 — higher, 241 °C
- Clc1ccc2c(c1)C(N1CCNCC1)=Nc1ccccc1O2 — higher, 176 °C
- OCC(F)(F)C(F)(F)C(F)(F)C(F)(F)C(F)(F)C(F)(F)C(F)(F)C(F)F — higher, 58 to 60 °C
- CN(CC=CC#CC(C)(C)C)Cc1cccc2ccccc12 — higher, 196 °C
- COc1ccc(C=CC(=O)Cl)c(Cl)c1OC — higher, 86 to 88 °C
- N#Cc1ccc(Br)cn1 — higher, 126 °C
- O=C(O)c1ccc(Oc2ccccc2)o1 — higher, 126 to 127 °C
- COc1c(OC)c(=O)c1=O — higher, 55 to 57 °C
- COc1ccc(C(=O)c2noc(-c3ccc(Br)cc3)c2S(=O)(=O)c2ccccc2)cc1 — higher, 150 °C
- O=C(O)c1ccc(O)nn1 — higher, 246 to 247 °C
- O=C=Nc1ccccc1 — lower, -31.3 °C
- Cc1nn(-c2ccccc2)c(N)c1C#N — higher, 129 to 131 °C
- O=C(/C=C/O)CCc1ccccc1 — higher, 150 °C
- COc1ccc(C2C(=O)c3ccccc3C2=O)cc1 — higher, 156 °C
- O=S(=O)(Cl)Cc1ccccc1Br — higher, 78 to 80 °C
- COc1c(C)cc(C(=O)O)cc1C — higher, 190 to 194 °C
- CCOC(=O)CCN(Cc1ccccc1)SN(C)C(=O)ON=C(C)SC — lower, 47 °C
- Cc1ccc(Sc2ccc(C=CC(=O)O)cc2[N+](=O)[O-])cc1 — higher, 217 to 218 °C
- COc1ccc(-c2cc(=O)c3ccccc3o2)cc1OC — higher, 155 °C
- O=CC=Cc1ccccc1[N+](=O)[O-] — higher, 125 to 129 °C
- CCCCOc1ccc(-c2nn(CCC#N)c(=S)[nH]2)cc1 — higher, 115 °C
- O=C1N[C@@H](c2ccccc2)CO1 — higher, 130 to 133 °C
- O=S(=O)(Cl)Cc1cccc(F)c1 — lower, 39 to 41 °C
- Fc1nc(F)c(Cl)c(F)c1Cl — lower, 25 °C
- c1csc(NC2=NCCN2)n1 — higher, 240 to 242 °C
- CN(C1=NC(=Cc2ccccc2)C(=O)N1c1ccccc1)c1ccccc1 — higher, 207 °C
- Cc1ccc2c(c1)CC2=O — higher, 53 °C
- CCCCCCCCC=CCCCCCCCC(=O)Nc1ccccc1 — lower, 41 °C
- O=c1c(O)c(O)c(=O)c1=O — higher, 331 to 334 °C
- CCOC(=O)CC1Sc2ccccc2NC1=S (stereo not given) — higher, 106 to 108 °C
- CCCc1ccc(C(C)=NO)cc1 — not separable, 48 to 50 °C
- CC(O)C(c1ccccc1)c1ccccc1 (stereo not given) — higher, 59 to 63 °C
- COc1cc(Cc2cnc(N)nc2N)cc(OC)c1Br — higher, 226 °C
- COc1cc2c(cc1OC)C(CCc1ccc(Cl)cc1)N(C)CC2 (stereo not given) — higher, 110 °C
- c1ccc(CNc2ccccn2)cc1 — higher, 95 °C
- CC(=O)OC1CCC2(C)C(=CC(=O)C3C4CCC(=O)C4(C)CCC32)C1 (stereo not given) — higher, 182 °C
- CCCSc1ccccc1 — lower, -45 °C
- C=C(C)C1CC=C(C)C(=NO)C1 (stereo not given) — higher, 71.5 °C
- O=C=Nc1c(F)cccc1F — lower, 24 °C
- O=C(O)C1C(c2ccccc2)C(C(=O)O)C1c1ccccc1 (stereo not given) — higher, 228 °C
- O=C(O)C(Cc1ccccc1)Cc1ccccc1 — higher, 90 °C
- Cc1cc(Br)cc(N)c1N — higher, 63 to 64 °C
- CCOC(=O)C(Cl)=NNc1ccccc1 — higher, 77 to 80 °C
- Brc1nc2ccccc2[nH]1 — higher, 200 °C
- O=Cc1ccsc1 — lower, -30 °C
- CC(=NO)c1ccn(S(=O)(=O)c2ccccc2)c1 — higher, 162 to 165 °C
- CC(=O)OC1(C)Cc2c(C)c(C)c(C)c(C)c21 (stereo not given) — higher, 70 °C
- O=C(O)c1cc(O)[nH]c(=O)c1 — higher, 300 °C
- Cn1nnc2cc(C=O)ccc21 — higher, 162 °C
- c1ccc(NNc2ccccc2)cc1 — higher, 131 °C
- CCCC(C)CCC — lower, -121 °C
- O=C(O)C=CC(=O)Nc1cccc(Cl)c1 — higher, 198 °C
- NNC(=S)Nc1cccc(Cl)c1 — higher, 132 °C
- Nc1cc(Cl)c(Cl)c(Cl)c1 — higher, 99 °C
- N#CCN=C(c1ccccc1)c1ccccc1 — higher, 83 to 86 °C
- COc1cc(S(C)=O)ccc1-c1nc2ncccc2[nH]1 (stereo not given) — higher, 204 °C
- CC12CCC3C(CCC4CC(=NO)CCC43C)C1CCC2O (stereo not given) — higher, 198 to 199 °C
- CCN(CC)C(=O)c1[nH]c(C)c(C)c1C — higher, 113 to 115 °C
- CCCOc1ccc([N+](=O)[O-])cc1N — higher, 49 °C
- O=CNc1ccc(C2=NNC(=O)CC2)cc1 — higher, 253 to 256 °C
- CCCCCCCCCCCC(C)=O — lower, 30.5 °C
- Cc1nc(/C(C#N)=N/Nc2ccc(Cl)cc2)sc1/N=N/c1ccccc1 — higher, 225 °C
- N#CC=Cc1cc(C(F)(F)F)cc(C(F)(F)F)c1 — higher, 80 °C
- Oc1ccc(Cl)cc1Cc1cc(Cl)ccc1O — higher, 178 °C
- CC1C=CCC1 (stereo not given) — lower, -127 °C
- Cc1ccc2c(c1)C(c1ccccc1)C(c1ccccc1)N2 (stereo not given) — higher, 155 °C
- O=C(O)CCCCCCCc1ccccc1 — lower, 28 °C
- FC(F)(F)c1cc(Cl)c(Cl)c(Cl)c1 — lower, -10 to -8 °C
- c1ccc(CCNc2cccc3cccnc23)cc1 — higher, 57.6 °C
- CC=Cc1ccc(OC)c(OC)c1 — lower, 18 °C
- CC1(C)C=[N+]([O-])C(C)(C)C1 — higher, 53 to 59 °C
- Cc1nc2cc([N+](=O)[O-])ccc2s1 — higher, 133 °C
- Nc1ccc2[nH]ccc2c1 — higher, 132 °C
- O=C1C(c2cccc(C3=[N+]([O-])c4cc([N+](=O)[O-])ccc4C3=O)c2)=[N+]([O-])c2cc([N+](=O)[O-])ccc21 — higher, 287 °C
- COC(=O)CCC(C)C1CCC2C3C(OC(C)=O)CC4CC(OC(C)=O)CCC4(C)C3CCC12C (stereo not given) — higher, 185 to 186 °C
- CC(C)CC(C)(C)CC(C)(C)CC(C)(C)C — lower, -98 °C
- COc1cc(C(=O)N2CCOCC2)cc(OC)c1OC — higher, 121 °C
- O=C(O)C=Cc1ccc(Oc2ccccc2)nc1 — higher, 204 to 206 °C
- Sc1nnc(-c2cc(Cl)nc(Cl)c2)o1 — higher, 205 to 206 °C
